Test results reported in ChEMBL document CHEMBL1146478, “Saponins from the bark of Nephelium maingayi” (J Nat Prod, 2004).
In brackets after ≈: the same amount, converted by molar mass.

Legend:
MCF7 = assay: Cytotoxicity against human MCF7 cells; type: functional; settings: read-out: ED50 (the source's name)
LNCaP = assay: Cytotoxicity against human LNCAP cells; type: functional; settings: read-out: ED50 (the source's name)
Lu1 = assay: Cytotoxicity against human Lu1 cells; type: functional; settings: read-out: ED50 (the source's name)
[1] = Cytotoxicity against human HUVEC; type: cell-based; settings: HUVEC cells, read-out: ED50 (the source's name)

CC(=O)OC[C@H]1O[C@@H](O[C@@H]2[C@@H](O)[C@H](O[C@H]3CC[C@]4(C)[C@H]5CC=C6[C@@H]7CC(C)(C)CC[C@]7(CO)CC[C@@]6(C)[C@]5(C)CC[C@H]4C3(C)C)OC[C@H]2O)[C@H](O)[C@@H](O)[C@@H]1O
EC50 (MCF7): > 20 µg/mL | EC50 (LNCaP): > 20 µg/mL | EC50 (Lu1): > 20 µg/mL | CC50 [1]: > 20 µg/mL

CC1(C)CC[C@]2(CO)CC[C@]3(C)C(=CC[C@@H]4[C@@]5(C)CC[C@H](O[C@@H]6OC[C@@H](O)[C@H](O[C@@H]7OC[C@H](O)[C@H](O)[C@H]7O)[C@H]6O[C@@H]6O[C@H](CO)[C@@H](O)[C@H](O)[C@H]6O)C(C)(C)[C@@H]5CC[C@]43C)[C@@H]2C1 [NEPHELIOSIDE I]
EC50 (MCF7): > 20 µg/mL | EC50 (LNCaP): > 20 µg/mL | EC50 (Lu1): 19.5 µg/mL (≈ 22.4 µM) | CC50 [1]: > 20 µg/mL

CC1(C)CC[C@]2(CO)CC[C@]3(C)C(=CC[C@@H]4[C@@]5(C)CC[C@H](O[C@@H]6O[C@H](CO)[C@@H](O)[C@H](O[C@@H]7OC[C@H](O)[C@H](O)[C@H]7O)[C@H]6O[C@@H]6O[C@H](CO)[C@@H](O)[C@H](O)[C@H]6O)C(C)(C)[C@@H]5CC[C@]43C)[C@@H]2C1 [NEPHELIOSIDE II]
EC50 (MCF7): > 20 µg/mL | EC50 (LNCaP): > 20 µg/mL | EC50 (Lu1): > 20 µg/mL | CC50 [1]: > 20 µg/mL

CO[C@@H]1C[C@H]2C(C)(C)[C@@H](O[C@@H]3O[C@H](CO)[C@@H](O)[C@H](O[C@@H]4OC[C@H](O)[C@H](O)[C@H]4O)[C@H]3O[C@@H]3O[C@H](CO)[C@@H](O)[C@H](O)[C@H]3O)CC[C@]2(C)[C@H]2CC=C3[C@@H]4CC(C)(C)CC[C@]4(CO)CC[C@@]3(C)[C@@]21C [NEPHELIOSIDE IV]
EC50 (MCF7): > 20 µg/mL | EC50 (LNCaP): > 20 µg/mL | EC50 (Lu1): > 20 µg/mL | CC50 [1]: > 20 µg/mL

CC1(C)CC[C@]2(C)[C@@H](O)C[C@]3(C)C(=CC[C@@H]4[C@@]5(C)CC[C@H](O[C@@H]6OC[C@@H](O)[C@H](O[C@@H]7OC[C@H](O)[C@H](O)[C@H]7O)[C@H]6O[C@@H]6O[C@H](CO)[C@@H](O)[C@H](O)[C@H]6O)C(C)(C)[C@@H]5CC[C@]43C)[C@@H]2C1 [NEPHELIOSIDE V]
EC50 (MCF7): 13.9 µg/mL (≈ 16 µM) | EC50 (LNCaP): 11.7 µg/mL (≈ 13.5 µM) | EC50 (Lu1): 13.6 µg/mL (≈ 15.6 µM) | CC50 [1]: 17.7 µg/mL (≈ 20.4 µM)

CC1(C)CC[C@]2(C)[C@@H](O)C[C@]3(C)C(=CC[C@@H]4[C@@]5(C)CC[C@H](O[C@@H]6O[C@H](CO)[C@@H](O)[C@H](O[C@@H]7OC[C@H](O)[C@H](O)[C@H]7O)[C@H]6O[C@@H]6O[C@H](CO)[C@@H](O)[C@H](O)[C@H]6O)C(C)(C)[C@@H]5CC[C@]43C)[C@@H]2C1 [NEPHELIOSIDE VI]
EC50 (MCF7): > 20 µg/mL | EC50 (LNCaP): > 20 µg/mL | EC50 (Lu1): > 20 µg/mL | CC50 [1]: > 20 µg/mL
